According to patent publication US4593104A, “2-halo-N-(azole-1-yl-methyl)-substituted acetanilides” (BASF Aktiengesellschaft, priority 1976, dated 1986):

Key:
[1] = system: Beta vulg.; assay: Table 13, % damage; type: in vivo, Beta vulgaris
Excerpt: (§1) The vessels employed were plastic flowerpots having a volume of 300 cm^3; the substrate was a sandy loam containing about 1.5% humus. The seeds of the test plants (see Table 1) were sown shallow, and separated according to species. In the case of Cyperus esculentus, pregerminated tubers were planted. In the preemergence treatment, the active ingredients were then immediately applied to the surface of the soil. They were suspended or emulsified in water as the vehicle, and sprayed through atomizing nozzles. After the agents had been applied, the vessels were lightly sprinkler-irrigated to set germination and growth going, and to activate the chemical agents. The vessels were then covered with transparent plastic hoods until the plants had taken root. This cover ensured uniform germination of the test plants (to the extent that this was not impaired by the chemicals), and prevented readily volatile substances from evaporating.
(§2) For postemergence treatment, the plants were first grown to a height of from 3 to 10 cm, depending on their habit, before treated. Hoods were not placed on the pots. The experiments were set up in the greenhouse, hotter areas (25° to 40° C.) being preferred for heat-loving species, and 15° to 30° C. for plants from moderate climates. The experiments were carried out for from 4 to 6 weeks. During this period the plants were tended and their reaction to the various treatments was assessed. The following tables contain the substances investigated, the application rates in kg/ha of active ingredient, and the test plant species. Assessments were made on a 0 to 100 scale, 0 denoting no damage or normal emergence, and 100 denoting no emergence or complete destruction of at least the visible plant parts.

[2] = system: Setar. spp.; assay: Table 13, % damage; type: in vivo
Excerpt: as §1, §2

[3] = system: Alopec. myosur.; assay: Table 13, % damage; type: in vivo
Excerpt: as §1, §2

[4] = system: Echin c.g.; assay: Table 13, % damage; type: in vivo
Excerpt: as §1, §2

[5] = system: Beta vulg.; assay: preemergence treatment in the greenhouse, % damage; type: in vivo, Beta vulgaris
Excerpt: as §1, §2

[6] = system: Glyc. max; assay: preemergence treatment in the greenhouse, % damage; type: in vivo, Glycine max
Excerpt: as §1, §2

[7] = system: Matric. spp.; assay: preemergence treatment in the greenhouse, % damage; type: in vivo
Excerpt: as §1, §2

[8] = system: Bromus spp.; assay: preemergence treatment in the greenhouse, % damage; type: in vivo
Excerpt: as §1, §2

[9] = system: Alopec. myosur.; assay: preemergence treatment in the greenhouse, % damage; type: in vivo
Excerpt: as §1, §2

[10] = system: Cyperus ferax; assay: preemergence treatment in the greenhouse, % damage; type: in vivo
Excerpt: as §1, §2

[11] = system: Setaria spp.; assay: preemergence treatment in the greenhouse, % damage; type: in vivo
Excerpt: as §1, §2

[12] = system: Echin. c.g.; assay: preemergence treatment in the greenhouse, % damage; type: in vivo
Excerpt: as §1, §2

[13] = system: Zea mays; assay: preemergence treatment in the greenhouse, % damage; type: in vivo; details: 2.0 kg/ha
Excerpt: as §1, §2

[14] = system: Solanum nigrum; assay: preemergence treatment in the greenhouse, % damage; type: in vivo
Excerpt: as §1, §2

[15] = system: Brassica napus; assay: preemergence treatment in the greenhouse, % damage; type: in vivo; details: 2.0 kg/ha
Excerpt: as §1, §2

[16] = system: Amar. retro.; assay: preemergence treatment in the greenhouse, % damage; type: in vivo
Excerpt: as §1, §2

[17] = system: Ipom. spp.; assay: preemergence treatment in the greenhouse, % damage; type: in vivo
Excerpt: as §1, §2

[18] = system: Sida spin.; assay: preemergence treatment in the greenhouse, % damage; type: in vivo
Excerpt: as §1, §2

[19] = system: Cyp. diff.; assay: preemergence treatment in the greenhouse, % damage; type: in vivo
Excerpt: as §1, §2

[20] = system: Cenchr. ech.; assay: preemergence treatment in the greenhouse, % damage; type: in vivo
Excerpt: as §1, §2

[21] = system: Panic. virg.; assay: preemergence treatment in the greenhouse, % damage; type: in vivo
Excerpt: as §1, §2

[22] = system: Lept. spp.; assay: preemergence treatment in the greenhouse, % damage; type: in vivo
Excerpt: as §1, §2

[23] = system: Gossyp. hirs.; assay: preemergence treatment in the greenhouse, % damage; type: in vivo, Gosspyium hirsutum
Excerpt: as §1, §2

[24] = system: Anth./Matric.; assay: preemergence application in the open, % damage; type: in vivo; details: 1.0 kg/ha
Description: (§3) The experiments were carried out on small plots. The soil was a sandy loam having a pH of from 5 to 6 and containing from 1 to 1.5% humus. The treatment was preemergence, the active ingredients being applied immediately or at the latest 3 days after sowing. The crop plants were sown in rows. The weed flora was made up of the most widely varying species and was natural; the weed flora depended on the time of the year and in part on the crop (e.g., spring-germinating, summer-germinating). The substances were emulsified or suspended in water as the vehicle, and applied by means of a motor-driven plot spray mounted on a hitch. When no rain fell, the plots were watered to ensure germination and growth of the crop plants and weeds. All the experiments were run for several weeks. Over this period, assessments were made at certain intervals on the 0 to 100 scale.

[25] = system: Stellaria media; assay: preemergence application in the open, % damage; type: in vivo; details: 1.0 kg/ha
Description: as §3

[26] = system: Alopec. myosur.; assay: preemergence application in the open, % damage; type: in vivo; details: 1.0 kg/ha
Description: as §3

[27] = system: Lamium spp.; assay: preemergence application in the open, % damage; type: in vivo; details: 1.0 kg/ha
Description: as §3

[28] = system: Brassica napus; assay: preemergence application in the open, % damage; type: in vivo; details: 1.0 kg/ha
Description: as §3

[29] = system: Euph. gen.; assay: preemergence treatment in the greenhouse, % damage; type: in vivo; details: 0.25 kg/ha
Excerpt: as §1, §2

[30] = system: Sorgh. halep.; assay: preemergence treatment in the greenhouse, % damage; type: in vivo
Excerpt: as §1, §2

[31] = system: Poa annua; assay: preemergence treatment in the greenhouse, % damage; type: in vivo; details: 0.25 kg/ha
Excerpt: as §1, §2

[32] = system: Chrys. seget.; assay: preemergence treatment in the greenhouse, % damage; type: in vivo; details: 0.25 kg/ha
Excerpt: as §1, §2

## CCc1cccc(C)c1N(Cn1cnc(Cl)c1Cl)C(=O)CCl
[1]; appl. rate 0.5
  % damage: 0%
[1]; appl. rate 1.0
  % damage: 0%
[2]; appl. rate 0.5
  % damage: 100%
[2]; appl. rate 1.0
  % damage: 100%
[3]; appl. rate 0.5
  % damage: 100%
[3]; appl. rate 1.0
  % damage: 100%
[4]; appl. rate 0.5
  % damage: 100%
[4]; appl. rate 1.0
  % damage: 100%

## Cc1cccc(C)c1N(Cn1ccnc1)C(=O)CCl
[1]; appl. rate 1.0
  % damage: 0%
[2]; appl. rate 1.0
  % damage: 20%
[3]; appl. rate 1.0
  % damage: 20%
[4]; appl. rate 1.0
  % damage: 40%

## CCc1cccc(CC)c1N(Cn1cc(OC)cn1)C(=O)CCl
[5]; 1.0 kg/ha
  % damage: 10%
[5]; 2.0 kg/ha
  % damage: 15%
[6]; 1.0 kg/ha
  % damage: 0%
[6]; 2.0 kg/ha
  % damage: 0%
[7]; 1.0 kg/ha
  % damage: 90%
[7]; 2.0 kg/ha
  % damage: 98%
[8]; 1.0 kg/ha
  % damage: 98%
[8]; 2.0 kg/ha
  % damage: 98%
[9]; 1.0 kg/ha
  % damage: 99%
[9]; 2.0 kg/ha
  % damage: 99%
[10]; 1.0 kg/ha
  % damage: 100%
[10]; 2.0 kg/ha
  % damage: 100%
[11]; 1.0 kg/ha
  % damage: 100%
[11]; 2.0 kg/ha
  % damage: 100%
[12]; 1.0 kg/ha
  % damage: 100%
[12]; 2.0 kg/ha
  % damage: 100%

## Cc1ccccc1N(Cn1cccn1)C(=O)CCl
[13]
  % damage: 15%
[7]; 2.0 kg/ha
  % damage: 90%
[8]; 2.0 kg/ha
  % damage: 80%
[14]; 2.0 kg/ha
  % damage: 95%
[9]; 2.0 kg/ha
  % damage: 90%
[11]; 2.0 kg/ha
  % damage: 95%
[15]
  % damage: 0%
[12]; 2.0 kg/ha
  % damage: 95%

## Cc1cccc(C)c1N(Cn1cnc(Cl)c1Cl)C(=O)CCl
[1]; appl. rate 0.5
  % damage: 0%
[1]; appl. rate 1.0
  % damage: 0%
[2]; appl. rate 0.5
  % damage: 100%
[2]; appl. rate 1.0
  % damage: 100%
[3]; appl. rate 0.5
  % damage: 80%
[3]; appl. rate 1.0
  % damage: 80%
[4]; appl. rate 0.5
  % damage: 100%
[4]; appl. rate 1.0
  % damage: 100%

## CCc1cccc(CC)c1N(Cn1nc(C)cc1C)C(=O)CCl [Compound 41]
[6]; 0.25 kg/ha
  % damage: 0%
[6]; 0.5 kg/ha
  % damage: 0%
[6]; 1.0 kg/ha
  % damage: 0%
[6]; 2.0 kg/ha
  % damage: 0%
[16]; 0.25 kg/ha
  % damage: 73%
[16]; 0.5 kg/ha
  % damage: 97%
[16]; 1.0 kg/ha
  % damage: 100%
[16]; 2.0 kg/ha
  % damage: 100%
[17]; 1.0 kg/ha
  % damage: 50%
[17]; 2.0 kg/ha
  % damage: 90%
[18]; 1.0 kg/ha
  % damage: 45%
[18]; 2.0 kg/ha
  % damage: 90%
[19]; 0.25 kg/ha
  % damage: 100%
[19]; 0.5 kg/ha
  % damage: 100%
[19]; 1.0 kg/ha
  % damage: 100%
[14]; 0.25 kg/ha
  % damage: 70%
[14]; 0.5 kg/ha
  % damage: 90%
[14]; 1.0 kg/ha
  % damage: 98%
[14]; 2.0 kg/ha
  % damage: 100%
[20]; 0.25 kg/ha
  % damage: 90%
[20]; 0.5 kg/ha
  % damage: 92%
[20]; 1.0 kg/ha
  % damage: 100%
[20]; 2.0 kg/ha
  % damage: 100%
[21]; 0.25 kg/ha
  % damage: 85%
[21]; 0.5 kg/ha
  % damage: 85%
[21]; 1.0 kg/ha
  % damage: 100%
[21]; 2.0 kg/ha
  % damage: 100%
[22]; 0.25 kg/ha
  % damage: 95%
[22]; 0.5 kg/ha
  % damage: 95%
[22]; 1.0 kg/ha
  % damage: 95%
[22]; 2.0 kg/ha
  % damage: 95%
[12]; 0.25 kg/ha
  % damage: 95%
[12]; 0.5 kg/ha
  % damage: 100%
[12]; 1.0 kg/ha
  % damage: 100%
[12]; 2.0 kg/ha
  % damage: 100%
[23]; 0.25 kg/ha
  % damage: 0%
[23]; 0.5 kg/ha
  % damage: 8%
[23]; 1.0 kg/ha
  % damage: 8%
[23]; 2.0 kg/ha
  % damage: 10%

## CCc1cccc(C)c1N(Cn1nc(C)cc1C)C(=O)CCl [Compound 40]
[24]
  % damage: 90%
[25]
  % damage: 68%
[26]
  % damage: 50%
[27]
  % damage: 60%
[28]
  % damage: 20%
[16]; 0.125 kg/ha
  % damage: 90%
[16]; 0.25 kg/ha
  % damage: 100%
[29]
  % damage: 0%
[30]; 0.125 kg/ha
  % damage: 60%
[30]; 0.25 kg/ha
  % damage: 60%
[19]; 0.125 kg/ha
  % damage: 100%
[19]; 0.25 kg/ha
  % damage: 100%
[8]; 0.25 kg/ha
  % damage: 80%
[14]; one value printed for two rates (0.125 0.25 kg/ha)
  % damage: 95%
[31]
  % damage: 100%
[32]
  % damage: 30%
